pIC50: −log10 of the molar value.
Tested on: Ninety four (94) cell lines and PBMC
Experiment: Cell viability assay, SRB staining, 94 cell lines and PBMC (Example 7, Experiment 2)
Assay type: cell-based
Procedure: Ninety four (94) cell lines were seeded at a density varying from 500 to 7000 cells/well depending on their growth characteristics. PBMC were seeded at the density 50,000-100,000 cells/well. Cells were incubated for 48 h prior to compound treatment. Compound 1 and DON were evaluated at a concertation range of 1 nM up to 100 μM. Compound 1 dilutions in DMSO and DON dilutions in PBS were performed in 96-well 0.5 mL plates (Greiner Bio-One, Germany). Compounds were then diluted 1:100 in RPMI medium. […] of cells were treated by mixing with 10 μL of the compound-containing media (resulting in a final DMSO concentration of 0.1%). The cells were allowed to grow at 37° C. for 120 h. Cells were fixed to the surface by addition of 10% TCA (for adherent growing cells) or 50% TCA (for semi-adherent growing cells or cells growing in suspension). After an hour of incubation at 4° C., plates were washed twice with 400 μL of deionized water and dried. Cells were then stained with 100 μL of 0.04% wt/v SRB. The plates were incubated at room temperature for at least 30 min and washed six times with 1% acetic acid to remove unbound stain. The plates were left to dry at room temperature and bound SRB was solubilized with 100 μL of 10 mM Tris base. Optical density was measured at 492, 520 and 560 nm using a Deelux-LED96 plate reader (Deelux Labortechnik GmbH, Germany).
Cell lines were purchased directly from the ATCC, NCI, CLS, and DSMZ cell line collections. A master bank and working aliquots were prepared. Cells used for the study had undergone less than 20 passages. To rule out potential contamination or wrong assignment, all cell lines were tested by STR analysis. Absence of mycoplasma contamination was confirmed for all cell lines used in the studies.
The cell lines were grown in the media recommended by the suppliers in the presence of 100 U/mL penicillin and 100 μg/mL streptomycin supplied with 10% FCS (PAA, Germany). RPMI 1640, DMEM, and MEM Earle's medium were from PAA (Coelbe, Germany), supplements 2 mM L-glutamine, 1 mM Na-pyruvate and 1% NEAA were from PAA (Coelbe, Germany), 2.5% horse serum, hydrocortisone, transferin, beta-estradiol, selenite and 1 U/mL insulin from Sigma-Aldrich (Munich, Germany). RPMI medium was used for culturing the following cell lines: 5637, 22RV1, 7860, A2780, A431, A549, ACHN, ASPC1, BT20, BXPC3, CAKI1, CLS439, COLO205, COLO678, DLD1, DU145, EFO21, EJ28, HCT15, HS578T, IGROV1, JAR, LOVO, MCF7, MDA MB231, MDA MB435, MDA MB436, MDA MB468, MHHES1, MT3, NCI H292, NCI H358M, NCI H460, NCIH82, OVCAR3, OVCAR4, PANC 1005 (addition of insulin), PBMC, PC3, RDES, SF268, SF295, SKBR3, SK MEL28, SKMEL5, SKOV3, SW620, U2OS, UMUC3, and U031.
DMEM medium was used to culture A204, A375, A673, C33A, CASKI, HCT116, HEPG2, HS729, HT29, J82, MG63, MIAPACA2 (addition of horse serum), PANC1, PLCPRF5, RD, SAOS2, SKLMS1, SKNAS, SNB75, T24, and TE671.
MEM Earle's medium was used for CACO2, CALU6, HEK293, HELA, HT1080, IMR90, JEG3, JIMT1, SKHEP1, SKNSH, and U87MG. Cell seeding conditions were optimized for each cell line. The cell seeding density varied from 500 to 7000 cells/well depending on their growth characteristics. Peripheral blood mononuclear cells (PBMC) were freshly isolated from whole blood of an anonymous donor through density gradient centrifugation using Ficoll solution (d=1.077). In short, blood was diluted 1:1 with PBS and carefully placed on the Ficoll. After centrifugation 1000×g for 15 min (braking rate 0), the ring containing mainly leucocytes was collected in PBS followed by three times washing with PBS to reduce the platelets. PBMC were seeded at the density 50,000-100,000 cells/well. Cells were grown in 5% CO2 atmosphere in a NB-203XXL incubator (N-BIOTEK Inc., Korea).
Ninety-four cell lines were tested in parallel. Cell growth and treatment were performed in 96 well microtitre plates CELLSTAR® (Greiner Bio-One, Germany). […]

[1] = Homo sapiens, 22Rv1, 22RV1, prostate
[2] = Homo sapiens, 786-0, 786O, kidney
[3] = Homo sapiens, A204, A204, muscle
[4] = Homo sapiens, A673, A673, muscle
[5] = Homo sapiens, A2780, A2780, ovary
[6] = Homo sapiens, A-375, A375, skin
[7] = Homo sapiens, A-431, A431, skin
[8] = Homo sapiens, ASPC1, ASPC1, pancreas
[9] = Homo sapiens, BT-20, BT20, breast
[10] = Homo sapiens, C-33-A, C33A, endometrial
[11] = Homo sapiens, CAKI-1, CAKI1, kidney
[12] = Homo sapiens, COLO 205, COLO205, colon
[13] = Homo sapiens, Ca-Ski, CASKI, endometrial
[14] = Homo sapiens, Caco-2, CACO2, colon
[15] = Homo sapiens, Calu-6, CALU6, lung
[16] = Homo sapiens, DLD-1, DLD1, colon
[17] = Homo sapiens, DU-145, DU145, prostate
[18] = Homo sapiens, EFO-21, EFO21, ovary
[19] = Homo sapiens, EJ-28, EJ28, bladder
[20] = Homo sapiens, Granta-519, GRANTA-519, hematological
[21] = Homo sapiens, HCT-15, HCT15, colon
[22] = Homo sapiens, HCT-116, HCT116, colon
[23] = Homo sapiens, HEK293, HEK293, kidney
[24] = Homo sapiens, HL-60, HL-60, hematological
[25] = Homo sapiens, HT-29, HT29, colon
[26] = Homo sapiens, HT-1080, HT1080, connective tissue
[27] = Homo sapiens, HeLa, endometrial
[28] = Homo sapiens, HepG2, HEPG2, liver
[29] = Homo sapiens, IGROV-1, IGROV1, ovary
[30] = Homo sapiens, JEG-3, JEG3, placenta
[31] = Homo sapiens, JIMT-1, JIMT1, breast
[32] = Homo sapiens, K562, K-562, hematological
[33] = Homo sapiens, Kasumi 1, KASUMI-1, hematological
[34] = Homo sapiens, L-363, L-363, hematological
[35] = Homo sapiens, MCF7, MCF7, breast
[36] = Homo sapiens, MDA-MB-231, MDAMB231, breast
[37] = Homo sapiens, MDA-MB-435, MDAMB435, skin
[38] = Homo sapiens, MDA-MB-436, MDAMB436, breast

With `CC(=O)N[C@@H](Cc1c[nH]c2ccccc12)C(=O)N[C@@H](CCC(=O)C=[N+]=[N-])C(=O)OC(C)C` [Compound 1, Isopropyl (S)-2-((S)-2-acetamido-3-(1H-indol-3-yl)propanamido)-6-diazo-5-oxohexanoate] the pIC50 (5637, bladder) was 5.62, the pIC50 (CLS439, bladder) was 5.07 and the GI50 [1] was 1.02 µM. It also gave a pIC50 [1] of 5.96, a GI50 [2] of 3.34 µM and a pIC50 [2] of 5.42. The GI50 [3] was 2.65 µM, the pIC50 [3] was 4.69 and the GI50 (Homo sapiens, A549, A549, lung) was 9.04 µM. It also gave a pIC50 (Homo sapiens, A549, A549, lung) of 5.03, a GI50 [4] of 3.49 µM and a pIC50 [4] of 5.41. For the same molecule, the GI50 [5] was 3.04 µM, the pIC50 [5] was 5.48 and the GI50 [6] was 4.13 µM. For the same molecule, the pIC50 [6] was 5.36, the GI50 [7] was 14.2 µM and the pIC50 [7] was 4.73. The GI50 (Homo sapiens, ACHN, kidney) was 7.88 µM, the pIC50 (Homo sapiens, ACHN, kidney) was 5.05 and the GI50 [8] was 5.96 µM. It also gave a pIC50 [8] of 5.08, a GI50 [9] of 20 µM and a pIC50 [9] of 4.27. It also gave a GI50 (Homo sapiens, BXPC-3, BXPC3, pancreas) of 4.24 µM, a GI50 [10] of 7.46 µM and a pIC50 [10] of 5.11. For the same molecule, the GI50 [11] was 5.3 µM, the pIC50 [11] was 5.17 and the GI50 [12] was 2.73 µM. It also gave a pIC50 [12] of 5.33, a GI50 (Homo sapiens, COLO-678, COLO678, colon) of 93 µM and a GI50 [13] of 5.9 µM. For the same molecule, the pIC50 [13] was 5.11, the GI50 [14] was 19.4 µM and the pIC50 [14] was 4.55. The GI50 [15] was 5.88 µM, the pIC50 [15] was 5.15 and the GI50 [16] was 9.25 µM. The pIC50 [16] was 5.02, the GI50 [17] was 8.82 µM and the pIC50 [17] was 4.96. The GI50 [18] was 6.86 µM, the pIC50 [18] was 4.85 and the GI50 [19] was 5.82 µM. The pIC50 [19] was 5.18, the GI50 [20] was 0.687 µM and the pIC50 [20] was 6.11. For the same molecule, the GI50 [21] was 20.1 µM, the pIC50 [21] was 4.66 and the GI50 [22] was 1.31 µM. For the same molecule, the pIC50 [22] was 5.87, the GI50 [23] was 9.21 µM and the pIC50 [23] was 4.98. The GI50 [24] was 1.09 µM, the pIC50 [24] was 5.96 and the GI50 [25] was 0.88 µM. It also gave a pIC50 [25] of 5.97, a GI50 [26] of 2.61 µM and a pIC50 [26] of 5.52. The GI50 [27] was 11.8 µM, the pIC50 [27] was 4.87 and the GI50 [28] was 7.87 µM. For the same molecule, the pIC50 [28] was 5.01, the GI50 (Homo sapiens, Hs-578T, HS578T, breast) was 36.4 µM and the GI50 [29] was 8.98 µM. For the same molecule, the pIC50 [29] was 4.97, the GI50 (Homo sapiens, IMR-90, IMR90, lung) was 14.6 µM and the GI50 [30] was 3.87 µM. The pIC50 [30] was 5.32, the GI50 [31] was 19.4 µM and the pIC50 [31] was 4.39. It also gave a GI50 [32] of 1.15 µM, a pIC50 [32] of 5.92 and a GI50 [33] of 3.17 µM. It also gave a pIC50 [33] of 5.10, a GI50 [34] of 0.546 µM and a pIC50 [34] of 6.14. It also gave a GI50 (Homo sapiens, LoVo, colon) of 5.16 µM, a pIC50 (Homo sapiens, LoVo, colon) of 5.26 and a GI50 [35] of 4.13 µM. The pIC50 [35] was 5.07, the GI50 [36] was 11.6 µM and the pIC50 [36] was 4.84. For the same molecule, the GI50 [37] was 14.7 µM, the pIC50 [37] was 4.82 and the GI50 [38] was 49.3 µM. For the same molecule, the pIC50 [38] was 3.88.
